# Assay results from patent US20220388980A1, “QUINOLINE INHIBITORS OF RAD52 AND METHODS OF USE” (Drexel University, priority 2019, published 2022).
# Biological target: T1, RAD52 (Homo sapiens, UniProt P43351)
# T1 construct: made in house
# T1 sequence (P43351 1-418): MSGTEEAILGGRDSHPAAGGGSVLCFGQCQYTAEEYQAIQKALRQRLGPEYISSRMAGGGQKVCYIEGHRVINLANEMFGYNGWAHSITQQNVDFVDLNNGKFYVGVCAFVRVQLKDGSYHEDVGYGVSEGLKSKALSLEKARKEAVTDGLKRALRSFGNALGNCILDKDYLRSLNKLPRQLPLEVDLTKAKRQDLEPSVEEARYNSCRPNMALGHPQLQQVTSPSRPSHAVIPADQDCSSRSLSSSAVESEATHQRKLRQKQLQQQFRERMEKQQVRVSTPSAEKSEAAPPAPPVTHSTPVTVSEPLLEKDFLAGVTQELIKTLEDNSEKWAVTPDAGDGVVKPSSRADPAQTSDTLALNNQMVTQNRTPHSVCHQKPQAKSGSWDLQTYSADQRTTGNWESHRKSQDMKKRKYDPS
# Assay: D-loop formation assay
# Type: biochemical
# Conditions: compound at 10 μM; 32P-labeled ssDNA (oligo 90) and supercoiled pUC19 DNA, 37° C.
row,D-Loop (% @10 μM) [%],Structure (SMILES)
1,40.29,S=C(NCCN1CCCCCC1)Nc1ccc2nc(N3CCNCC3)ccc2c1 [compound 0021]
2,37.7,S=C(NCCCN1CCCCCC1)Nc1ccc2nc(N3CCNCC3)ccc2c1 [compound 0022]
3,36.08,CCN1CCN(c2cc(C)c3cc(NC(=S)NCCN4CCCCC4)ccc3n2)CC1 [compound 0025]
4,11.42,CCN1CCN(c2cc(C)c3cc(NC(=S)NCCCN4CCCCC4)ccc3n2)CC1 [compound 0026]
5,23.26,CCN1CCN(c2cc(C)c3cc(NC(=S)NCCN4CCCCCC4)ccc3n2)CC1 [compound 0027]
6,46.57,CCN1CCN(c2cc(C)c3cc(NC(=S)NCCCN4CCCCCC4)ccc3n2)CC1 [compound 0028]
7,46.67,CCN1CCN(c2cc(C)c3cc(NC(=S)NCCN4CCCC4)ccc3n2)CC1 [compound 0029]
8,12.77,CCN1CCN(c2cc(C)c3cc(NC(=S)NCCN)ccc3n2)CC1 [compound 0033]
9,64.68,CCN1CCN(c2cc(C)c3cc(NC(=S)NCCN(C(C)C)C(C)C)ccc3n2)CC1 [compound 0035]
10,64.62,CCN(CC)CCCCNC(=S)Nc1ccc2nc(N3CCN(CC)CC3)cc(C)c2c1 [compound 0036]
11,77.7,"CCN(CC)CCNC(=O)Nc1ccc2nc(N3CCN(CC)CC3)cc(C)c2c1 [compound 0038, 1-(2-(diethylamino)ethyl)-3-(2-(4-ethylpiperazin-1-yl)-4-methylquinolin-6-yl)urea]"
12,93.38,"CCN1CCN(c2cc(C)c3cc(NC(=O)NCCCN4CCCCCC4)ccc3n2)CC1 [compound 0039, 1-(3-(azepan-1-yl)propyl)-3-(2-(4-ethylpiperazin-1-yl)-4-methylquinolin-6-yl)urea]"
13,62.62,CCN1CCN(c2cc(C)c3cc(NC(=S)NCCN4CCCCCCC4)ccc3n2)CC1 [compound 0041]
14,53.70,CCN1CCN(c2cc(C)c3cc(NC(=S)NCCCN4CCC4)ccc3n2)CC1 [compound 0042]
15,50.05,CCN1CCN(c2cc(C)c3cc(NC(=S)NCC(C)(CN)CN)ccc3n2)CC1 [compound 0044]
16,55.68,CCN1CCN(c2cc(C)c3cc(NC(=S)NCCN4CCNCC4)ccc3n2)CC1 [compound 0045]
17,18.73,CCN1CCN(c2cc(C)c3cc(NC(=S)NCCN4CCN(C)CC4)ccc3n2)CC1 [compound 0046]
18,7.92,CCN1CCN(c2cc(C)c3cc(NC(=S)NCCCCN)ccc3n2)CC1 [compound 0047]
19,15.65,CCN(CC)CCNC(=S)Nc1ccc2nc(N3CCNCC3)cc(C)c2c1 [compound 0048]
20,44.4,CCN(CC)CCNC(=S)Nc1ccc2nc(N3CCN(CC4CC4)CC3)cc(C)c2c1 [compound 0049]

row,D-Loop (% @10 μM) [%],Structure (SMILES)
1,62.82,CCN(CC)CCNC(=S)Nc1ccc2nc(N3CCN(CC4CCCCC4)CC3)cc(C)c2c1 [compound 0050]
2,10.13,CCN(CC)CCNC(=S)Nc1ccc2nc(N3CCN(CC4CCCNC4)CC3)cc(C)c2c1 (centres unmarked) [compound 0051]
3,4.07,CCN(CC)CCNC(=S)Nc1ccc2nc(N3CCN(CC4CCNCC4)CC3)cc(C)c2c1 [compound 0052]
4,54.13,CCC(C)[C@H](N)C(=O)N1CCN(c2cc(C)c3cc(NC(=S)NCCN(CC)CC)ccc3n2)CC1 (some centres unmarked) [compound 0053]
5,53.78,CCN(CC)CCNC(=S)Nc1ccc2nc(N3CCN(C(=O)C4CCCN4)CC3)cc(C)c2c1 (centres unmarked) [compound 0054]
6,27.42,CCN(CC)CCNC(=S)Nc1ccc2nc(N3CCN(C(=O)C4CNCCN4)CC3)cc(C)c2c1 (centres unmarked) [compound 0055]
7,0.31,CCN1CCN(c2cc(C)c3cc(NC(=S)NCCCCCN)ccc3n2)CC1 [compound 0056]
8,52.1,CCN1CCN(c2cc(C)c3cc(NC(=S)NCCCNC)ccc3n2)CC1 [compound 0057]
9,25.89,CCN1CCN(c2cc(C)c3cc(NC(=S)N(C)CCCN)ccc3n2)CC1 [compound 0058]
10,1.3,Cc1cc(N2CCN(CC3CCCNC3)CC2)nc2ccc(NC(=S)NCCN3CCCCCC3)cc12 (centres unmarked) [compound 0059]
11,0.66,Cc1cc(N2CCN(CC3CCNCC3)CC2)nc2ccc(NC(=S)NCCN3CCCCCC3)cc12 [compound 0060]
12,1.89,Cc1cc(N2CCN(CC3CCCNC3)CC2)nc2ccc(NC(=S)NCCCN3CCCCCC3)cc12 (centres unmarked) [compound 0062]
13,1.58,Cc1cc(N2CCN(CC3CCNCC3)CC2)nc2ccc(NC(=S)NCCCN3CCCCCC3)cc12 [compound 0063]
14,1.5,Cc1cc(N2CCN(CC3CCCNC3)CC2)nc2ccc(NC(=S)NCCCN3CCCC3)cc12 (centres unmarked) [compound 0064]
15,1.04,Cc1cc(N2CCN(CC3CCNCC3)CC2)nc2ccc(NC(=S)NCCCN3CCCC3)cc12 [compound 0065]
16,35.65,CCN1CCN(c2cc(C)c3cc(NC(=S)NCCCCN(C)C)ccc3n2)CC1 [compound 0067]
17,30.62,CCN1CCN(c2cc(C)c3cc(NC(=S)NCCCN4CCCC4)ccc3n2)CC1 [compound 0068]
18,20.7,CCN1CCN(c2cc(C)c3cc(NC(=S)NCCC4CCCN4)ccc3n2)CC1 (centres unmarked) [compound 0069]
19,16.42,CCN1CCN(c2cc(C)c3cc(NC(=S)NCCN4CCC(CN5CCCC5)C4)ccc3n2)CC1 (centres unmarked) [compound 0073]
20,21.2,CCN1CCN(c2cc(C)c3cc(NC(=S)NCCCN)ccc3n2)CC1 [compound 0077]

row,D-Loop (% @10 μM) [%],Structure (SMILES)
1,25.15,CCN1CCN(c2cc(C)c3cc(NC(=S)NCCCN4CCNCC4)ccc3n2)CC1 [compound 0079]
2,35.63,CCN(CC)CCNC(=S)Nc1ccc2nc(N3CCN(CCN)CC3)cc(C)c2c1 [compound 0080]
3,68.84,CCN(CC)CCNC(=S)Nc1ccc2nc(N3CCN(Cc4nccn4C)CC3)cc(C)c2c1 [compound 0084]
4,4.44,CCN(CC)CCNC(=S)Nc1ccc2nc(N3CCN(CC(N)CO)CC3)cc(C)c2c1 (centres unmarked) [compound 0086]
5,0,CCN(CC)CCNC(=S)Nc1ccc2nc(N3CCN(CCC4CCC(N)CC4)CC3)cc(C)c2c1 (centres unmarked) [compound 0087]
6,8.25,CCN(CC)CCNC(=S)Nc1ccc2nc(N3CCCC3)cc(C)c2c1 [compound 0088]
7,3.48,Cc1cc(N2CCCC2)nc2ccc(NC(=S)NCCN3CCCCCC3)cc12 [compound 0089]
8,2.93,Cc1cc(N2CCCC2)nc2ccc(NC(=S)NCCN3CCCCC3)cc12 [compound 0090]
9,3.47,Cc1cc(N2CCCC2)nc2ccc(NC(=S)NCCCN3CCCCC3)cc12 [compound 0091]
10,5.98,Cc1cc(N2CCCC2)nc2ccc(NC(=S)NCCCN3CCCC3)cc12 [compound 0092]
11,4.86,Cc1cc(N2CCCC2)nc2ccc(NC(=S)NCCN)cc12 [compound 0093]
12,4.26,Cc1cc(N2CCCC2)nc2ccc(NC(=S)NCCCN)cc12 [compound 0094]
13,4.51,Cc1cc(N2CCCC2)nc2ccc(NC(=S)NCCCCN)cc12 [compound 0095]
14,3.99,Cc1cc(N2CCCC2)nc2ccc(NC(=S)NCCN3CCNCC3)cc12 [compound 0096]
15,4.72,Cc1cc(N2CCCC2)nc2ccc(NC(=S)NCCN3CCN(C)CC3)cc12 [compound 0097]
16,70.99,CCN(CC)CCNC(=S)Nc1ccc2nc(N3CCCCC3)cc(C)c2c1 [compound 0098]
17,67.50,Cc1cc(N2CCCCC2)nc2ccc(NC(=S)NCCN3CCCCCC3)cc12 [compound 0099]
18,0.34,"Cc1cc(N2CCN(CC3CCNCC3)CC2)nc2ccc(NC(=O)NCCCN3CCCCCC3)cc12 [compound 0113, 1-(3-(azepan-1-yl)propyl)-3-(4-methyl-2-(4-(piperidin-4-ylmethyl)piperazin-1-yl)quinolin-6-yl)urea]"
19,16,"CCN(CC)CCNC(=O)C(=O)Nc1ccc2nc(N3CCN(CC)CC3)cc(C)c2c1 [compound 0114, N^1-(2-(diethylamino)ethyl)-N^2-(2-(4-ethylpiperazin-1-yl)-4-methylquinolin-6-yl)oxalamide]"
